What was measured:
weeds = test: Weed control by the pest control sheet in a watermelon crop; assay type: in vivo
From the text: (§1) The present invention further provides a method for pest control. Said method may be applied in agriculture, horticulture or in garden maintenance. In agriculture and horticulture said method is applied as follows: subsequent to physically preparing the field and soil for planting, e.g. plowing, fumigating the soil and laying down of an irrigation system, the sheet is spread over the field so as to cover the soil [FIG. II, (1)], and is then secured to the ground. The sheet [FIG. II, (2), (3)] is then punctured at the spot where a seedling is intended to be planted so that a seedling [FIG. II, (4)] may be inserted through the hole [FIG. II, (5)] and planted in the soil. […] When the sheet contains a pesticide in the top layer, then pest control is maintained above the soil, in the area of the plant. This may also help in protecting the fruit/vegetable itself. Said method can be applied in gardens in a similar manner as described above. The sheet and method of the present invention have been applied to a watermelon crop. The experiments were conducted with three different concentrations of herbicide in the bottom layer.

watermelon crop = test: Watermelon crop development under the pest control sheet; assay type: in vivo
From the text: as §1

[1] = 0.5 weight % of pesticide in bottom layer of sheet
[2] = 1 weight % of pesticide in bottom layer of sheet
[3] = 2 weight % of pesticide in bottom layer of sheet

CCOc1cc(Oc2ccc(C(F)(F)F)cc2Cl)ccc1[N+](=O)[O-] [Oxyfluorfen, 2-chloro-a,a,a-trifluoro-p-tolyl 3-ethoxy-4-nitrophenyl ether]
100%: Weed control (% of weed control on a scale of 0-100, 100 indicating total prevention of weed emergence) (weeds; [1]) | Weed control (% of weed control on a scale of 0-100, 100 indicating total prevention of weed emergence) (weeds; [2]) | Weed control (% of weed control on a scale of 0-100, 100 indicating total prevention of weed emergence) (weeds; [3]) | Development (% of crop development in comparison to healthy crop on a scale of 0-100, 100 indicating a healthy crop) (watermelon crop; [1]) | Development (% of crop development in comparison to healthy crop on a scale of 0-100, 100 indicating a healthy crop) (watermelon crop; [2]) | Development (% of crop development in comparison to healthy crop on a scale of 0-100, 100 indicating a healthy crop) (watermelon crop; [3])

Reference: patent publication US20080312086A1, “PEST CONTROL SHEET” (MAKHTESHIM CHEMICAL WORKS LTD., priority 2000, published 2008)
